pIC50: −log10 of the molar value.
Assays:
PC-3 = assay: Antiproliferative activity against human PC3 cells after 48 hrs by resazurin reduction test; conditions: PC-3, 48 h
HT-22 = assay: Antiproliferative activity against mouse HT22 cells by MTS reduction assay
[1] = molecular target: Glycogen synthase kinase-3 (Sus scrofa, UniProt B2LUN4+I6LNT8); assay: Inhibition of pig brain GSK-3alpha/beta using YRRAAVPPSPSLSRHSSPHQSpEDEEE as substrate
[2] = molecular target: Dual specificity tyrosine-phosphorylation-regulated kinase 1A (Rattus norvegicus, UniProt Q63470); assay: Inhibition of rat recombinant GST-tagged DYRK1A using myelin protein as substrate and [gamma32]-ATP after 30 mins by scintillation counting
IMR-32 = assay: Antiproliferative activity against human IMR32 cells by MTS reduction assay
MCF7 = assay: Antiproliferative activity against human MCF7 cells after 48 hrs by resazurin reduction test; conditions: MCF7, 48 h
PA-1 = assay: Antiproliferative activity against human PA1 cells after 48 hrs by resazurin reduction test; type: functional, cell-based; conditions: PA-1, 48 h
DU-145 = assay: Antiproliferative activity against human DU145 cells after 48 hrs by resazurin reduction test; type: functional, cell-based; conditions: DU-145, 48 h
[3] = molecular target: Dual specificity protein kinase CLK1 (Homo sapiens, UniProt P49759)
[4] = Antiproliferative activity against human primary fibroblasts after 48 hrs by resazurin reduction test; type: cell-based; conditions: Fibroblast
[5] = molecular target: Cyclin-dependent kinase 5/CDK5 activator 1 (Homo sapiens, UniProt Q00535); assay: Inhibition of human recombinant CDK5/p25 using Histone H1 and [gamma32]-ATP after 30 mins by scintillation counting; type: protein-complex assay
[6] = Inhibition of pig brain CK1 delta/epsilon using RRKHAAIGpSAYSITA as substrate; set-up: species or system Sus scrofa
SH-SY5Y = assay: Antiproliferative activity against human SH-SY5Y cells by MTS reduction assay

Dual specificity protein kinase CLK1, sequence (P49759 whole entry): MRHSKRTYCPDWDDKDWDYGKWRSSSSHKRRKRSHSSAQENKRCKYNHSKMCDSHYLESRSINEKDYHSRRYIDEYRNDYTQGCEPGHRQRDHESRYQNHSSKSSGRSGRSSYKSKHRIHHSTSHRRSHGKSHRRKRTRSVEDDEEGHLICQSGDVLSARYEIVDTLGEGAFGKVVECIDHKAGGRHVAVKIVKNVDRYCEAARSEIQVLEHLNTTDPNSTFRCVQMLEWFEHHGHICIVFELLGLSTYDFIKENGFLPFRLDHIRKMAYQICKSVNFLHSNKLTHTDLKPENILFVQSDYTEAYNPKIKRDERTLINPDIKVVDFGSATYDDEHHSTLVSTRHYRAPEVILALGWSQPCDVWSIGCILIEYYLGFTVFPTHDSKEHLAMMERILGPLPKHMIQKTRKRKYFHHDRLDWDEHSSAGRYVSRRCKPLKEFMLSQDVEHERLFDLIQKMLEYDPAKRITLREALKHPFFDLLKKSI
Cyclin-dependent kinase 5/CDK5 activator 1, sequence (Q00535 whole entry): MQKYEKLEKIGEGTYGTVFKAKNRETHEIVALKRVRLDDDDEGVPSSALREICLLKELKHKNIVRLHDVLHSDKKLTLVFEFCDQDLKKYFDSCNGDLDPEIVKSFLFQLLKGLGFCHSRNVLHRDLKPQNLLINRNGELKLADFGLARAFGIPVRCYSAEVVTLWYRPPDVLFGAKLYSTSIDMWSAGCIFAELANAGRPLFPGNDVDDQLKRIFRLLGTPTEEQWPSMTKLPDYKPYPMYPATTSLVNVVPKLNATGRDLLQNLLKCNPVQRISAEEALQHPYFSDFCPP
Cyclin-dependent kinase 5/CDK5 activator 1, sequence (Q15078 whole entry, further chain): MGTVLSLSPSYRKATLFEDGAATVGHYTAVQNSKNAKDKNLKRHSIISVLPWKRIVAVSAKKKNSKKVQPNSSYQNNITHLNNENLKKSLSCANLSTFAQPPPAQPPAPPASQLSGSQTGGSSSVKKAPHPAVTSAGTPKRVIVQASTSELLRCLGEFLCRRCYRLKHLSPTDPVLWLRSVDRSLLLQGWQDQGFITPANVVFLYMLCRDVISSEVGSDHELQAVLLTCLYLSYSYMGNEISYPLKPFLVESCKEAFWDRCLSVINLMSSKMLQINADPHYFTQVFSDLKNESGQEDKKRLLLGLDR

Structure (SMILES) | pIC50 (PC-3) | pIC50 (HT-22) | IC50 [1] [µM] | pIC50 [2] | pIC50 (IMR-32) | pIC50 (MCF7) | pIC50 (PA-1) | pIC50 (DU-145) | pIC50 [3] | pIC50 [4] | pIC50 [5] | pIC50 [6] | pIC50 (SH-SY5Y)
Nc1ncc(I)c(-c2c[nH]c3cccc(N)c23)n1 | < 4.30 | < 5.00 | > 10 | 5.55 | < 5.00 | < 5.00 | 4.74 | < 4.30 | 6.00 | < 4.30 | < 5.00 | < 5.00 | < 5.00
Nc1ccc2[nH]cc(-c3nc(N)ncc3I)c2c1 | 4.32 | < 5.00 | > 10 | 5.64 | < 5.00 | < 5.00 | 4.96 | 4.40 | 6.21 | 4.36 | < 5.00 | 6.57 | < 5.00
Nc1ccc2c(-c3nc(N)ncc3I)c[nH]c2c1 | 4.33 | < 5.00 | 4.2 | 6.66 | < 5.00 | < 5.00 | 4.89 | 4.59 | 7.10 | 4.44 | 5.21 | 6.29 | < 5.00
Nc1ncc(I)c(-c2c[nH]c3c(N)cccc23)n1 | 4.85 | 4.92 | 4.4 | 6.96 | 5.40 | 4.70 | 5.60 | 5.21 | 7.59 | 4.97 | 6.18 | 5.96 | 5.05
Nc1nccc(-c2c[nH]c3cccc(Br)c23)n1 | – | < 4.60 | > 10 | 6.07 | < 4.60 | < 4.60 | – | – | 5.85 | – | 5.00 | 5.28 | < 4.60
Nc1nccc(-c2c[nH]c3c(Br)cccc23)n1 | – | < 4.60 | > 10 | 7.17 | 4.60 | < 4.60 | – | – | 7.19 | – | 5.51 | 5.38 | < 4.60
Nc1ncc(I)c(-c2c[nH]c3cccc(Br)c23)n1 | < 5.00 | < 5.00 | > 10 | 5.84 | < 5.00 | < 5.00 | < 5.00 | – | 5.64 | – | < 5.00 | 5.89 | < 5.00
Nc1ncc(I)c(-c2c[nH]c3ccc(Br)cc23)n1 | < 5.00 | 5.10 | 2.1 | 6.48 | 4.89 | < 4.60 | < 5.00 | – | 6.74 | – | 5.74 | 6.11 | 4.64
CC(=O)c1ccc(-c2cnc(N)nc2-c2c[nH]c3cccc(Br)c23)cc1 | < 5.00 | < 5.00 | – | 5.68 | < 5.00 | < 5.00 | < 5.00 | – | – | – | 5.15 | < 5.00 | < 5.00
CC(=O)c1ccc(-c2cnc(N)nc2-c2c[nH]c3ccc(Br)cc23)cc1 | < 5.00 | 5.00 | 0.68 | 5.07 | 4.89 | 5.38 | < 5.00 | – | 5.80 | – | < 5.00 | < 5.00 | < 4.60
CC(=O)Nc1ccc(-c2cnc(N)nc2-c2c[nH]c3cccc(Br)c23)cc1 | < 5.00 | < 5.00 | > 10 | < 5.00 | < 5.00 | < 5.00 | < 5.00 | – | < 5.00 | – | < 5.00 | < 5.00 | < 5.00
Nc1nccc(-c2c[nH]c3ccccc23)n1 | – | < 4.60 | > 10 | 6.15 | < 4.60 | < 4.60 | – | – | 6.28 | – | 5.30 | 5.21 | < 4.60
Nc1nccc(-c2c[nH]c3ccc(Br)cc23)n1 [MERIDIANIN C] | – | 5.03 | 1.3 | 6.48 | < 4.60 | 4.62 | – | – | 6.66 | – | 5.92 | 5.14 | < 4.60
Nc1nccc(-c2c[nH]c3cc(Br)ccc23)n1 [MERIDIANIN D] | – | < 4.60 | 7.2 | 6.89 | < 4.60 | < 4.60 | – | – | 6.92 | – | 5.92 | 5.42 | < 4.60
